From US20110237566A1, “Therapeutic Macrolide Compounds and Their Use” (MERLION PHARMACEUTICALS PTE LTD, priority 2008, published 2011) come the findings set out here.

Molecules are shown by their SMILES. Bounds are passed on as bounds.

The test system of data set [1] is COLO205 human colon adenocarcinoma cell. Briefly: Growth inhibition (cytotoxicity), COLO205 assay, Cell Titer Glo. The note with it: COLO 205, 72 h, COLO205 cells, 72 hour incubation. It counts as cell-based. On the procedure: (§1) The cytotoxicity of each of the MC compounds as described herein was evaluated in the following cell types: A549 human alveolar epithelial cell, PC3 human prostate carcinoma cell, COLO205 human colon adenocarcinoma cell, HEPG2 human hepatoma, OVCAR3 human ovary adenocarcinoma cell, and HL60 human acute myelocytic leukemia (AML) cell.
(§2) A549, PC3, COLO205 and HEPG2 cells were cultured in DMEM (Invitrogen Corporation) with 10% fetal bovine serum, whereas OVCAR3 and HL60 were cultured in the same medium but with 20% fetal bovine serum. For cytotoxocoty measurements the cells were seeded in 96 or 384 well tissue culture treated microtitre plates overnight. Compounds were diluted in appropriate buffers and added to the cells the next day. Following a further 72 hour incubation, cell viability was determined using Cell Titer Glo (Promega Corporation) according to the manufacturers' instructions, and the luminescence measured in Luminoskan Ascent (Thermo Fisher Scientific Inc.).
A general note: Cellular ATP, detected with luciferase, serves as a proxy for viable cell number.

Data set [2] relates to HL60 human acute myelocytic leukemia (AML) cell. Briefly: Growth inhibition (cytotoxicity), HL60A assay, Cell Titer Glo. The note with it: HL-60, 72 h, HL60 cells, 72 hour incubation. It counts as cell-based. On the procedure:
as §1, §2

Data set [3] relates to OVCAR3 human ovary adenocarcinoma cell. Briefly: Growth inhibition (cytotoxicity), OVCAR3 assay, Cell Titer Glo. The following applies: OVCAR3 cells, 72 hour incubation. It counts as cell-based. On the procedure: as §1, §2
The test system of data set [4] is PC3 human prostate carcinoma cell. Briefly: Growth inhibition (cytotoxicity), PC3A assay, Cell Titer Glo. The following applies: PC-3, 72 h, PC3 cells, 72 hour incubation. Type of data set: cell-based. On the procedure:
as §1, §2

Data set [5] is described as follows: Microsomal stability assay. The following applies: human, human liver microsomes, pH 7.4, human liver microsomes, 50 μm, 37° C.; read-out: T1/2, 50 μm microsomal stability assay. It counts as in vitro ADME. The method, then:
50 μL test sample (50 mM), 25 μL human liver microsomes (20 mg/ml, BD Gentest, catalog no. 452161), 281 μL potassium phosphate buffer (100 mM, pH 7.4), 5 μL NaDPH regenerating system, solution B (BD Biosciences, catalog no. 451200), and 114 μL of water were pre-incubated for 5 min at 37° C. The reaction was initiated by the addition of 25 μL NaDPH regenerating system, solution A (BD Biosciences, catalog no. 451220). After an incubation period of 0, 15, 30, and 60 min at 37° C., 100 μL of the reaction mixture was transferred to an eppendorf tube, followed by addition of 100 μL chilled acetonitrile to quench the reaction. The sample was then centrifuged at 14,000 rpm for 5 min. The supernatant was submitted for LCMS analysis.

Data set [6] deals with A549 human alveolar epithelial cell. In words: Growth inhibition (cytotoxicity), A549 assay, Cell Titer Glo. Type of data set: cell-based. The following applies: A549, 72 h, A549 cells, 72 hour incubation. The method, then:
as §1, §2

For another data set, the system named is HEPG2 human hepatoma. Briefly: Growth inhibition (cytotoxicity), HEPG2A assay, Cell Titer Glo. The following applies: HEPG2 cells, 72 hour incubation. It counts as cell-based. The method, then: as §1, §2
The nature of data set [7]: Stability determination at PBS pH7.2. The note with it: PBS pH 7.2, pH 7.2, PBS pH7.2, 37° C.; read-out: T1/2, PBS buffer stability assay. It counts as physicochemical. On the procedure:
Around 0.1 mg of the dried sample was placed in a 2-mL vial, added with 1 mL of PBS pH7.2 and then mixed using a Vortex mixer. The mixture was filtered through a 4 mm Nylon filter with 0.2 μm pore size and the filtrate collected in an hplc vial. The vial was placed in an hplc autosampler maintained at 37° C. just before injection (time=0 h). The stability of the sample was calculated by determining the amount left in solution at specific time intervals. This study was carried out in three trials with the buffer solution as a blank.

With `CC[C@H](OC)[C@@H](C)[C@H]1O[C@@H]1C(NCc1ccc(F)cc1)C(C)(O)/C=C/C=C(\C)C1OC(=O)C[C@H](O)CC[C@@](C)(O)[C@@H](OC(C)=O)/C=C/[C@@H]1C.O=CO` (single isomer, unassigned) [MC-006c], the concentration for half-maximal inhibition (IC50) was no more than 100 nM in data set [1]; no more than 100 nM in data set [2]; no more than 100 nM in data set [3] (Homo sapiens, OVCAR-3, 72 h); no more than 100 nM in data set [4]. Further, the half-life at 50 μM in data set [5] is greater than 30 min.
For the compound `CC[C@H](OC)[C@@H](C)[C@H]1O[C@@H]1C(NCc1ccncc1)C(C)(O)/C=C/C=C(\C)C1OC(=O)C[C@H](O)CC[C@@](C)(O)[C@@H](OC(C)=O)/C=C/[C@@H]1C` (single isomer, unassigned) [MC-007b], the half-maximal inhibitory concentration (IC50) in data set [6] is no more than 1000 nM; in data set [2], no more than 100 nM.
On to `CC[C@H](OC)[C@@H](C)[C@H]1O[C@@H]1C(NCc1ccc(Cl)cc1)C(C)(O)/C=C/C=C(\C)C1OC(=O)C[C@H](O)CC[C@@](C)(O)[C@@H](OC(C)=O)/C=C/[C@@H]1C` (single isomer, unassigned) [MC-016a], for which the IC50 was no more than 100 nM in data set [1]; no more than 100 nM in the data set on HEPG2 human hepatoma (Homo sapiens, HepG2, 72 h); no more than 100 nM in data set [2]; no more than 100 nM in data set [3] (Homo sapiens, OVCAR-3, 72 h); no more than 100 nM in data set [4].
Turning to `CC[C@H](OC)[C@@H](C)[C@H]1O[C@@H]1C(NCc1ccc(C)c(F)c1)C(C)(O)/C=C/C=C(\C)[C@H]1OC(=O)C[C@H](O)CC[C@@](C)(O)[C@@H](OC(C)=O)/C=C/[C@@H]1C.O=CO` (stereo in doubt) [MC-031], the IC50 in data set [3] (Homo sapiens, OVCAR-3, 72 h) is no more than 100 nM; in data set [4], no more than 100 nM. In data set [5], the half-life at 50 μM was greater than 30 min. Besides, in data set [7], the half-life at 0.1 mg/mL is greater than 30 min.
Take `CC[C@H](OC)[C@@H](C)[C@H]1O[C@@H]1C(NCc1ccc(OC)cc1)C(C)(O)/C=C/C=C(\C)C1OC(=O)C[C@H](O)CC[C@@](C)(O)[C@@H](OC(C)=O)/C=C/[C@@H]1C` (stereo partly drawn) [MC-005]: the 50% inhibitory concentration (IC50) with HEPG2 human hepatoma was 57 nM; in the data set with HEPG2 human hepatoma (Homo sapiens, HepG2, 72 h), no more than 100 nM; in data set [3] (Homo sapiens, OVCAR-3, 72 h), no more than 100 nM; in data set [3] it was 61 nM. For the same compound, in data set [5], the half-life at 50 μM came out at 20 min.
Regarding `CC[C@H](OC)[C@@H](C)[C@H]1O[C@@H]1C(NCc1ccncc1)C(C)(O)/C=C/C=C(\C)C1OC(=O)C[C@H](O)CC[C@@](C)(O)[C@@H](OC(C)=O)/C=C/[C@@H]1C` (stereo partly drawn) [MC-007c], the figures for the IC50 in data set [6], in data set [1] and in data set [2] were no more than 1000 nM, no more than 100 nM and no more than 100 nM, respectively.
Turning to `CC[C@H](OC)[C@@H](C)[C@H]1O[C@@H]1C(NCc1ccc(N2CCOCC2)cc1)C(C)(O)/C=C/C=C(\C)C1OC(=O)C[C@H](O)CC[C@@](C)(O)[C@@H](OC(C)=O)/C=C/[C@@H]1C` (stereo partly drawn) [MC-037], the half-life at 0.1 mg/mL in data set [7] is greater than 30 min.
On the same count and under the same terms, in the case of `CC[C@H](OC)[C@@H](C)[C@H]1O[C@@H]1C(NCc1ccc2[nH]ccc2c1)C(C)(O)/C=C/C=C(\C)C1OC(=O)C[C@H](O)CC[C@@](C)(O)[C@@H](OC(C)=O)/C=C/[C@@H]1C` (stereo partly drawn) [MC-043] it was greater than 30 min.
In the case of `CC[C@H](OC)[C@@H](C)[C@H]1O[C@@H]1C(NCc1ccc(Cl)c(Cl)c1)C(C)(O)/C=C/C=C(\C)C1OC(=O)C[C@H](O)CC[C@@](C)(O)[C@@H](OC(C)=O)/C=C/[C@@H]1C` (stereo partly drawn) [MC-059], the IC50 is no more than 100 nM in data set [1]; no more than 100 nM in the data set on HEPG2 human hepatoma (Homo sapiens, HepG2, 72 h); no more than 100 nM in data set [3] (Homo sapiens, OVCAR-3, 72 h); no more than 100 nM in data set [4].

The term IC50 denotes the concentration that gives 50% inhibition. Read a high IC50 as weaker potency.
